The structures appear in SMILES notation. Entries after “also recorded” stand apart in the source; their conditions may differ. Like-named read-outs stand apart in the source and are kept apart here.

The subject of data set [1] is Aire. The data set is described as follows: Aire expression in mTEC during thymic recovery. From the text:
Primary antibodies and lectins used were FITC-conjugated UEA-1 lectin (Silenus?), Ki67 (BD), PE-conjugated Ly51 (clone 6C3, Pharmingen) Ki67 (BD), I-A/I-E (BD), CD45 (LCA)(BD), PerCP Cy5.5 conjugated CD45 (BD), APC-conjugated I-A/I-E (Miltenyi), biotinylated CD31 (BD), and EpCAM (G8.8a, prepared in-house from a clone kindly donated by Dr. A. Fan) MTS15 hybridoma supernatant (prepared in-house), rat anti-mouse Aire (a kind gift from Dr. H. Scott). Secondary reagents used were FITC-conjugated anti-rat IgG2c, Streptavidin PerCPCy5.5 and Streptavidin APC.
Antibodies and conjugates were obtained from BD Pharmingen (USA) unless otherwise indicated. […] Secondary antibodies used were anti-rat IgG2c (Southern Biotech, USA), anti-rat IgG2a (Southern Biotech, USA) Streptavidin PerCP Cy5.5 and Streptavidin APC, anti-rabbit IgG-Alexa 488 (Invitrogen, USA).

Data set [2] concerns thymocytes. The data set can be described thus: Thymus cellularity and thymocyte subsets after drug-induced thymus depletion. The following applies: mice, i.p. treatment.
Method: (§1) Male and female C57B16 mice aged at 4-8 weeks were obtained from Monash Animal Services and housed under SPF conditions.
(§2) Control mice were injected with the same volume of PBS.
Control mice were given PBS alone.
(§3) Mice were given either 20 mg/kg Dexamethasone (Lyppards, Australia) or the equivalent volume of PBS as a single i.p. injection.
(§4) In all experiments, the final day of treatment was designated as Day 0. Mice were then humanely killed by CO2 asphyxiation at various timepoints.
(§5) Each thymus was thoroughly cleaned of fat and connective tissue and its capsule nicked with fine scissors. Each thymus was then incubated at 37° C. for 10 minutes in 2 mL of 0.125% (w/v) Collagenase D with 500 μL of 0.1% (w/v) DNAse I (both from Roche, Germany) in RPMI-1640, with regular agitation. The supernatant was collected, kept on ice, and the digestion repeated using the remaining settled thymic fragments. After 3 digestions, the remaining aggregates were incubated for 10 minutes with 1 mL of 0.125% (w/v) Collagenase/Dispase (Roche, Germany) with 500 μL 0.1% (w/v) DNAse I in RPMI-1640. Cells from all supernatant fractions were then pooled and centrifuged at 472 gmax for 5 minutes, then resuspended in cold EDTA/FACS buffer (5 mM EDTA in PBS with 2% FCS and 0.02% NaN3). Cells were filtered through 100 μm mesh. Cell counts were performed using a Z2 Coulter Counter (Beckman Coulter USA).
(§6) Male and female C57B1/6J (B6) mice aged at 8-12 weeks were obtained from Monash Animal Services and housed under SPF conditions, in accordance with institutional guidelines.
(§7) In all experiments, the final day of treatment was designated as Day 0. Mice were then humanely killed by CO2 asphyxiation at indicated timepoints.
(§8) Briefly, thymi were agitated in RPMI-1640 to flush out thymocytes. After collecting supernatant, thymic fragments were incubated individually at 37° C. for 10 minutes in 2 mL of 0.125% (w/v) Collagenase D with 500 μL of 0.1% (w/v) DNAse I (both from Roche, Germany) in RPMI-1640, with regular agitation. The supernatant was collected, kept on ice, and the digestion repeated three times, followed by a final 10 minute digestion in 1 mL of 0.125% (w/v) Collagenase/Dispase (Roche, Germany) with 500 μL 0.1% (w/v) DNAse I in RPMI-1640. The supernatant fractions were then pooled and centrifuged, keeping each thymus separate, at 472 gmax for 5 minutes, and resuspended in cold EDTA/FACS buffer (5 mM EDTA in PBS with 2% FCS and 0.02% Sodium Azide). Cells were filtered through 100 μm mesh. Cell counts were performed using a Z2 Coulter Counter (Beckman Coulter USA).
Data set [3] relates to thymic epithelial cells. The data set can be described thus: Thymic epithelial cell (TEC) subsets by flow cytometry after drug-induced thymic damage. The following applies: for effect on TEC subsets: mice, i.p. treatment.
Method: as §2
Control mice were given PBS alone.
as §3, §4, §5
(§9) Cells were washed in cold EDTA/FACS buffer and 5×10^6 cells dispensed into 96 well round-bottom plates, Cells were suspended in 50 μL of a primary mAb (hybridoma supernatant or suboptimal dilution of purified antibody) or conjugate for 15 minutes at 4° C. in the dark, followed by a wash step (200 μL EDTA/FACS buffer, 1300 rpm centrifuge for 3 minutes). Secondary mAb were then added and incubated and cells were washed twice. For intracellular staining, cells were washed once in cold PBS then fixed and permeabilised using the BD Cytofix/Cytoperm kit (BD Biosciences, USA) according to the manufacturer's instructions. Cells were stained with 50 μL of primary antibody diluted in PermWash buffer for 30 mins, then washed in PermWash buffer and incubated with secondary antibody where required. Cells were washed in PermWash, then finally washed in FACS buffer, before being resuspended in 200 μL of FACS or EDTA/FACS buffer for acquisition.
(§10) A FACScalibur and CellQuest software (BD Biosciences, USA) were used for flow cytometric analysis, using four fluorescent channels (FL1 for FITC, FL2 for PE, FL3 for CyChrome/PECy5, PerCP and PI, and FL4 for APC). All compensations were performed on single colour labelling of an appropriate cell sample containing both positive and negative populations. Exclusion of non-viable and haemopoietic cells was based on forward light scatter versus side light scatter and CD45 expression respectively.
as §7, §8
Data set [4] deals with thymocytes. The following applies: mouse, in vivo.
Method: as §1, §2
Control mice were given PBS alone.
as §3, §4, §5, §6, §7, §8
Data set [5] deals with thymic epithelial cells. The following applies: mouse, in vivo.
Method: as §2
Control mice were given PBS alone.
as §3, §4, §5, §9, §10, §7, §8
Setting [6] is: days after cessation of treatment.

In the case of `O=P1(N(CCCl)CCCl)NCCCO1` (centres unmarked) [Cyclophosphamide], in data set [1] (by treatment), the “effect on Aire expression” value was “almost completely abrogated”. Moreover, in data set [2], the “effect on all thymocyte subsets” value is recorded as “marked reduction in all thymocyte subsets” and the “effect on thymic cellularity / thymic involution” value is on record as “severe thymic involution; also recorded: greatest impact on thymic cellularity”. In data set [3] (setting [6]), the “recovery of mTEC-lo cells to normal / untreated levels” value is no more than 28 days and the “return of TEC subsets to normal / homeostatic proportions” value stood at 28 days. In addition, the “effect on TEC subsets” value in data set [3] is “mTEC-Hi were proportionally the major subset effected; also recorded: ablated all TEC subsets”. Besides, the “effect on TEC subsets” value in data set [3] (listed as cyclophosphamide) is on record as “TEC as a population are significantly reduced”. The “effect on non-TEC stromal cells” value in data set [3] (mouse, in vivo) is “not effected”.

For `C[C@@H]1C[C@H]2[C@@H]3CCC4=CC(=O)C=C[C@]4(C)[C@@]3(F)[C@@H](O)C[C@]2(C)[C@@]1(O)C(=O)CO` [Dexamethasone], the “effect on Aire expression” value in data set [1] (mouse, in vivo) is “almost completely abrogated”. For the same compound, the “return of thymic cellularity to untreated levels” value in data set [4] was no more than 14 days. For the same compound, the “effect on all thymocyte subsets” value in data set [4] (ip) is on record as “marked reduction in all thymocyte subsets”. In data set [5], the “recovery of mTEC-hi” value was no more than 14 days, the “return of TEC subsets to normal / homeostatic proportions” value was no more than 28 days and the “return of cTEC to normal levels / homeostasis” value was no more than 7 days.

The values are drawn from patent publication US20100178700A1, “NOVEL THYMIC CELLULAR POPULATIONS AND USES THEREOF” (priority 2007, published 2010).
